Read-outs that look alike come from different tables or passages of the source.
Biological target: T1, human CXCR3 (N-delta 4) (Homo sapiens, UniProt P49682)
T1 construct: CD8 leader; Flag tag; expressed in transfected cells; membrane preparation
T1 sequence (P49682 5-368 limits assumed): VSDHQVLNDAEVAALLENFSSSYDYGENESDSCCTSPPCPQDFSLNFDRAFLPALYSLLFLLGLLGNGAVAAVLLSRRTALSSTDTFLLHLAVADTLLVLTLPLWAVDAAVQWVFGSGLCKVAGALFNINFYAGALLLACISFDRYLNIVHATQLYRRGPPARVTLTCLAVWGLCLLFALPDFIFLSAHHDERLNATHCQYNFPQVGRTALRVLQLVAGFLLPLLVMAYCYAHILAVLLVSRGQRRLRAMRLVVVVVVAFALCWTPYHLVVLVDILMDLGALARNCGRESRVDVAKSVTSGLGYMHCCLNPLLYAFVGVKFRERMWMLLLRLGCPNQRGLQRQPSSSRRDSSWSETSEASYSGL
Experiment: Human CXCR3 (N-delta 4) scintillation proximity binding assay ([125I] IP-10 displacement)
Excerpt: The inventive compounds can readily be evaluated to determine activity at The CXCR3 receptors by known methods, such as, for example, Development of Human CXCR3 (N-delta 4) Binding Assay.
Cloning and Expression of Human CXCR3 (N-Delta 4):
The DNA encoding human CXCR3 was cloned by PCR using human genomic DNA (Promega, Madison, Wis.) as a template. The PCR primers were designed based on the published sequence of human orphan receptor GPR9 (1) with incorporated restriction sites, a Kozak consensus sequence, CD8 leader and Flag tag. The PCR product was subcloned into the mammalian expression vector pME18Sneo, a derivative of the SR-alpha expression vector (designated as pME18Sneo-hCXCR3 (N-delta 4).
IL-3-dependent mouse pro-B cells Ba/F3 were transfected by electroporation in 0.4 ml Dulbecco's PBS containing 4×10^6 cells with 20 μg of pME18Sneo-hCXCR3 (N-delta 4) plasmid DNA. Cells were pulsed at 400 Volts, 100 OHMs, 960 μFd. The transfected cells were under selection with 1 mg/ml G418 (Life Technologies, Gaithersburg, Md.). G418-resistant Ba/F3 clones were screened for CXCR3 expression by specific binding of [^125I] IP-10 (NEN Life Science Products, Boston, Mass.).
Preparation of Ba/F3-hCXCR3 (N-Delta 4) Membranes
Ba/F3 cells expressing human CXCR3 (N-delta 4) were pelleted and resuspended in the lysis buffer containing 10 mM HEPES, pH 7.5 and Complete® protease inhibitors (1 tablet per 100 ml) (Boehringer Mannheim, Indianapolis, Ind.) at a cell density of 20×10^6 cells per ml. After 5 minutes incubation on ice, cells were transferred to 4639 cell disruption bomb (Parr Instrument, Moline, Ill.) and applied with 1,500 psi of nitrogen for 30 minutes on ice. Large cellular debris was removed by centrifugation at 1,000×g. Cell membrane in the supernatant was sedimented at 100,000×g. The membrane was resuspended in the lysis buffer supplemented with 10% sucrose and stored at −80° C. Total protein concentration of the membrane was determined by BCA method from Pierce (Rockford, Ill.).
Human CXCR3 (N-Delta 4) Scintillation Proximity Assay (SPA)
For each assay point, 2 μg of membrane was preincubated for 1 hr with 300 μg wheat germ agglutinin (WGA) coated SPA beads (Amersham, Arlington Heights, Ill.) in the binding buffer (50 mM HEPES, 1 mM CaCl2, 5 mM MgCl2, 125 mM NaCl, 0.002% NaN3, 1.0% BSA) at room temperature. The beads were spun down, washed once, resuspended in the binding buffer and transferred to a 96-well Isoplate (Wallac, Gaithersburg, Md.). 25 pM of [^125I] IP-10 with tested compounds in a series of titration were added to start the reaction. After 3 hr reaction at room temperature, the amount of [^125I]; IP-10 bound to the SPA beads was determined with a Wallac 1450 Microbeta counter.

[1] = human CXCR3, Table 1, read-out: Ki rating
[2] = Human CXCR3, Table 2, read-out: Ki

Row | SMILES | Ki [1] [nM] | Ki [2] [nM] | Ki (human CXCR3, read-out: Ki) [nM]
1 | CC[C@H]1CN(c2ccc(-c3nnc(N)o3)nc2C)[C@H](C)CN1C1CCN(C(=O)c2ccc(Cl)cc2)CC1 [Compound 12] | 25 to 100 | – | –
2 | CC[C@H]1CN(c2ccc(-c3nnc(N)o3)nc2C)[C@H](C)CN1C1CCN(C(=O)c2ccc(Cl)c(F)c2)CC1 [Compound 13] | 25 to 100 | – | –
3 | CCNc1nnc(-c2ccc(N3C[C@H](CC)N(C4CCN(C(=O)c5ccc(Cl)cc5)CC4)C[C@H]3C)c(C)n2)o1 [Compound 11] | 25 to 100 | – | –
4 | CCNc1nnc(-c2ccc(N3CCN(C4CCN(C(=O)c5ccc(Cl)c(F)c5)CC4)[C@@H](CC)C3)c(C)n2)o1 [Compound 5] | < 25 | – | –
5 | CCNc1nnc(-c2ccc(N3C[C@H](CC)N(C4CCN(Cc5ccc(Cl)cc5)CC4)C[C@H]3C)c(C)n2)o1 [Compound 2] | < 25 | 0.4 | –
6 | CCNc1nnc(-c2ccc(N3C[C@H](CC)N(C4CCN(C(=O)c5ccc(Cl)c(F)c5)CC4)C[C@H]3C)c(C)n2)o1 [Compound 10] | 25 to 100 | – | –
7 | CC[C@H]1CN(c2ccc(-c3nnc(N)o3)nc2C)CCN1C1CCN(C(=O)c2ccc(F)c(F)c2)CC1 [Compound 9] | < 25 | – | –
8 | CCNc1nnc(-c2ccc(N3CCN(C4CCN(Cc5ccc(Cl)cc5)CC4)[C@@H](CC)C3)c(C)n2)o1 [Compound 1] | < 25 | – | 0.2
9 | CC[C@H]1CN(c2ccc(-c3nnc(N)o3)nc2C)CCN1C1CCN(Cc2ccc(OC(F)(F)F)cc2)CC1 [Compound 3] | < 25 | 0.5 | –

Next, values leading:

Row | Ki [1] [nM] | Ki [2] [nM] | Ki (human CXCR3, read-out: Ki) [nM] | SMILES
10 | < 25 | – | – | CC[C@H]1CN(c2ccc(-c3nnc[nH]3)nc2C)CCN1C1CCN(C(=O)c2ccc(Cl)c(F)c2)CC1 [Compound 6]
11 | < 25 | – | – | CC[C@H]1CN(c2ccc(-c3nnc(N)o3)nc2C)CCN1C1CCN(C(=O)c2ccc(Cl)c(F)c2)CC1 [Compound 7]
12 | < 25 | 0.3 | – | CC[C@H]1CN(c2ccc(-c3nnc(N)o3)nc2C)CCN1C1CCN(Cc2ccc(Cl)cc2)CC1 [Compound 14]
13 | < 25 | 2.4 | – | CC[C@H]1CN(c2ccc(-c3nnc(N)o3)nc2C)CCN1C1CCN(C(=O)c2ccc(Cl)cc2)CC1 [Compound 15]
14 | < 25 | – | – | CCNc1nnc(-c2ccc(N3CCN(C4CCN(C(=O)c5ccc(F)c(F)c5)CC4)[C@@H](CC)C3)c(C)n2)o1 [Compound 8]
15 | < 25 | – | – | CCNc1nnc(-c2ccc(N3CCN(C4CCN(C(=O)c5ccc(Cl)cc5)CC4)[C@@H](CC)C3)c(C)n2)o1 [Compound 4]

— patent publication US7786124B2, “Heterocyclic substituted pyridine compounds with CXCR3 antagonist activity” (Schering Corporation, priority 2006, dated 2010)
